# Literature values in patent US20080194655A1, “ZERO ORDER CONTROLLED RELEASE COMPOSITIONS OF TIZANIDINE” (priority 2007, published 2008).
# System: cognitive function (attention)
# Details: doses of 0.5-0.7 g/kg alcohol
structure (smiles),measurement,value
CCO [alcohol],peak impairment (decrement) in Power of Attention compared to baseline,about 150 msec
